# Laboratory results reported in PubChem BioAssay AID385 (SGCOxCompounds, 2006).
# Molecular target: Casein kinase I isoform gamma-3 (Homo sapiens) (UniProt Q9Y6M4)
# Assay: CSNK1G3 binders by thermal stabilization, biophysical, DSF, SYPRO orange, recombinant protein (AID 385)
# Settings: at 10 µM, protein 2 µM, buffer 10 mM HEPES, pH 7.5, NaCl 150 mM, active compounds read high
# Chain of Casein kinase I isoform gamma-3 (Homo sapiens) (Q9Y6M4 whole entry, looked up, canonical isoform): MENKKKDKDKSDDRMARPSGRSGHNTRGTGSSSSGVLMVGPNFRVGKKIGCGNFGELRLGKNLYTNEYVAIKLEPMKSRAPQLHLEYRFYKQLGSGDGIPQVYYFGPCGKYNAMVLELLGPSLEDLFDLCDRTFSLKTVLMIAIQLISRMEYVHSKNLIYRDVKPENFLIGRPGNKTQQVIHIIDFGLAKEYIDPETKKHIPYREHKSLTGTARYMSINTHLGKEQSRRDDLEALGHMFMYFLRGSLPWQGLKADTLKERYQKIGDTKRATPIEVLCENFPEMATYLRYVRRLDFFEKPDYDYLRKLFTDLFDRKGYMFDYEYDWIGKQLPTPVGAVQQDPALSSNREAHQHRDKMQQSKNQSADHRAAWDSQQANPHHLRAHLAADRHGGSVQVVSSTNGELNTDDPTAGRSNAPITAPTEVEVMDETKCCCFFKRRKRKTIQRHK
row,SMILES,Tm shift
1,NC(=O)c1ccc(-c2nc(-c3ccc4c(c3)OCCO4)c(-c3ccccn3)[nH]2)cc1,6.7 C
2,Nc1nc(Nc2ccccc2F)sc1C(=O)c1ccc(Br)cc1,3.4 C
3,COc1ccc(Nc2nc(N)c(C(=O)c3ccc(Cl)cc3)s2)cc1,3.1 C
4,Nc1nc(Nc2cccc(Cl)c2)sc1C(=O)c1ccc(F)cc1,4.8 C
5,Nc1nc(Nc2ccc(S(N)(=O)=O)cc2)nn1C(=S)Nc1c(F)cccc1F,5.4 C
6,N#C/C(=C1\Nc2ccccc2S1)c1ccnc(NCCc2cccnc2)n1,3.5 C
7,O=Nc1c(-c2c(O)[nH]c3ccc(S(O)(O)O)cc23)[nH]c2ccccc12,3.8 C
8,COc1ccc(Nc2nc(N)c(C(=O)c3ccc(OC)cc3)s2)cc1,4.9 C
9,Nc1nc(Nc2ccccc2)sc1C(=O)c1ccc(F)cc1,3.3 C
10,Nc1nc(Nc2ccc(F)cc2)sc1C(=O)c1ccccc1,3.5 C
11,CC(C)n1cnc2c(Nc3cccc(Cl)c3)nc(NCCO)nc21,7 C
12,CSc1nc(-c2ccnc(NC(C)c3ccccc3)c2)c(-c2ccc(F)cc2)[nH]1 (stereo unspecified),3.5 C
13,O=c1[nH]c(O)c2c1c1c3ccccc3nc1n1cncc21,3.5 C
14,NC1=N/C(=C2/CCNC(=O)c3[nH]c(Br)cc32)C(=O)N1,3.5 C
15,CCN(CC)CCNC(=O)c1c(C)[nH]c(/C=C2\C(=O)Nc3ccc(Cl)cc32)c1C,4 C
16,CCn1cnc2c(Nc3cccc(Cl)c3)nc(N[C@@H]3CCCC[C@@H]3N)nc21,5.5 C
